From patent US20120136033A1, “Small Molecule Antagonists of Phosphatidylinositol-3,4,5-Triphosphate (PIP3) and Uses Thereof” (President and Fellows of Harvard College, priority 2009, published 2012)
pIC50: −log10 of the molar value.

Tests used:
HUVEC [1] = test: endothelial tube formation assay on Matrigel; assay type: cell-based, human
Protocol: The tube formation assay was performed in 96-well plates. Wells were pre-coated with 70 μl of the Matrigel basement membrane matrix (BD Biosciences) per well for 1 hr at 37° C. HUVEC were suspended in serum-free M199 medium and plated on Matrigel at a density of 2×10^4 cells per well. PIT-1 was added at indicated concentrations (3.125-100 μM). After an 8 hr incubation at 37° C., phase-contrast images of the endothelial tubes were obtained using a Nikon TE2000 microscope, and tube formation was assessed by counting the number of closed tubes in five random fields from each well.

HUVEC [2] = test: HUVEC migration, wound healing and transwell assays; assay type: cell-based, human
Protocol: Two models of cell migration were used, a transwell migration model and a wound closure model. Migration of cancer and endothelial cells was evaluated using 24-transwell Boyden chamber (Costar, Bedford, Mass.) with a polystyrene membrane (6.5 mm diameter, 10 μm thickness, and 8 μm pore size). Cells were suspended in serum-free media and seeded in the upper compartment of each well (2×10^4 cells/well) in the presence or absence of different compounds at the indicated concentrations. The lower compartment contained 600 μl of serum-free culture media supplemented with growth factors. After an 8-hr incubation at 37° C., cells were fixed and stained with 0.1% crystal violet. Non-migrating cells on the upper surface of the filter were removed, and the stained cells that migrated to the lower side were photographed using a phase-contrast microscope (Nikon, Japan) in five random fields. The cells were lysed with 10% acetic acid, and colorimetric determination was made at 595 nm using Wallac Victor 3 plate reader.
Cancer or endothelial cells were seeded into fibronectin-coated 96-well plates (2×10^4 cells/well). […]
Second, HUVEC were serum starved and treated with PITs (25, 50 100 μM) or PIT-1is (100 μM) for 8 hr, followed by bFGF (10 ng/ml) stimulation for 15 min. […] The number of cell ruffles/lamellipodia was counted in five random fields.

SUM159 cells = test: actin polymerization and ruffling/lamellipodia formation in SUM159 cells; assay type: cell-based, human; conditions: 25, 50, 100 μM PITs or 100 μM PIT-1is, 8 hr; PDGF 15 min
Protocol: In one set of experiments, the ability of PITs to inhibit actin polymerization and ruffling/lamellipodia formation was examined in SUM159 cells. Cells were serum starved and treated with PITs (25, 50 100 μM) or PIT-1is (100 μM) for 8 hr, followed by PDGF (100 ng/ml) stimulation for 15 min. Cells were fixed and stained with TRITC-phalloidin to visualize actin fibers, followed by fluorescent microscopy analysis. The number of cells with ruffles/lamellipodia was counted in five random fields.

cells = test: subG1 DNA content; assay type: cell-based; conditions: P<0.01
Description: Since PI3K/PIP3/Akt signaling plays a critical role in the inhibition of apoptosis (Datta S R et al. (1999) Genes Dev 13:2905-27), the possibility that PITs induce apoptosis was examined. […] Proapoptotic Bcl-2 family members Bax and Bak are important mediators of apoptosis. Wei M C et al. (2001) Science 292:727-30. […] Non-apoptotic mechanisms of cell death may also play some additional, albeit less important, role in PIT-induced killing, as some cell death was still observed in Bax/Bak-deficient cells and in the presence of zVAD.fmk.

[3] = tested on: multiple cancer cell lines; test: cancer cell viability (MTS or ATP assay), multiple cancer cell lines; assay type: cell-based; conditions: for viability of multiple cancer cell lines: B16, Jurkat, Lewis lung carcinoma, A549, 4T1, SUM-159, MDA-MB-231, MTS or ATP assay
Protocol: Different cancer cell lines U87MG, SUM 159, A549, and MDA-MB-231 were incubated with the indicated concentrations of PIT-1 (12.5-100 μM) for 48 hr. Cell viability was determined using ATP assay.
Based on the critical role of PIP3-dependent Akt signaling in the regulation of cell survival, the effect of PIT-1 on the cancer cell viability was tested. Cancer cells were seeded into 96-well plates (white plates for ATP assay; black plates for fluorescent assay; clear plates for MTS assay) at the density of 5-10×10^3 cells per well in 100 μl of the appropriate media. Compounds were added at a series of concentrations and incubated for different times. For the ATP assay, a luminescence-based commercial kit (CellTiter-Glo, Promega, Madison, Wis.) was used. Thirty microliters of cell lysis/ATP detection reagent was added to each well, mixed for 10 min at room temperature, and the luminescence was measured using a Wallac Victor 3 plate reader (Perkin-Elmer, Wellesley, Mass.). For the MTS assay, a CellTiter 96 AQueous Non-Radioactive Cell Proliferation Assay Kit (Promega, Madison, Wis., USA) was used. Twenty microliters of the combined MTS/PMS solution was added into each well, incubated for 4 hr at 37° C., and the absorbance at 490 nm was measured using a Wallac Victor 3 plate reader. For the Sytox cell death assay, measuring loss of plasma membrane integrity, cells were incubated with 1 μM Sytox Green reagent (Molecular Probes, Eugene, Oreg.) for 30 min at 37° C. and the fluorescence intensity was measured using Wallac Victor 3 plate reader with excitation at 485 nm and emission at 545 nm. Next, 5 μl of 20% (v/v) Triton X-100 solution was added to each well and incubated for 1 hr at 37° C., and the signal was measured again. The ratio of values (percentage of dead cells in each well) before and after Triton X-100 treatment was calculated and normalized to the relevant controls not subjected to the cytotoxic stimuli. IC50 values were determined using Origin6 software (MicroCal, LLC, Northampton, Mass.).

WAVE2 = target: T1, WAVE2 (Homo sapiens, UniProt Q9Y6W5); test: plasma membrane translocation assay, WAVE2-GFP; assay type: cell-based
T1 construct: expressed in transfected cells; host or cells: SUM159
T1 sequence (Q9Y6W5 whole entry, species assumed): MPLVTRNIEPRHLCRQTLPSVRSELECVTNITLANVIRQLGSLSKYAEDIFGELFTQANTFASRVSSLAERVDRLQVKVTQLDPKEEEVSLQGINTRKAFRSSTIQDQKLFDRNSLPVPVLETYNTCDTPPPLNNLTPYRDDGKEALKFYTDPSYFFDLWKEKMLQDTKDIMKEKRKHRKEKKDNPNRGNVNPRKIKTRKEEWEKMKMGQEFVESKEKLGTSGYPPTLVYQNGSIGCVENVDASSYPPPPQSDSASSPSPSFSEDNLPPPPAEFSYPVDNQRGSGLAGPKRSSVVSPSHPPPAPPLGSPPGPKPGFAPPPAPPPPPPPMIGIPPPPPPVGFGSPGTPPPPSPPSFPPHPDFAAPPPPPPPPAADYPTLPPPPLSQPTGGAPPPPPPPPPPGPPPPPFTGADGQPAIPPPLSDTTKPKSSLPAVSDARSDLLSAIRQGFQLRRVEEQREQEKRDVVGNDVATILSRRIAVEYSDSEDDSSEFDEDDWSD
Protocol: To begin characterizing cellular activity of PITs, a PH domain translocation assay was performed, measuring PIP3-induced association of GFP-fused PH domains with the plasma membrane. This method provides useful means for monitoring status of the PH domain/PIP3 binding in the intact cells. Varnai P et al. (1999) J Biol Chem 274:10983-9. Several PH-domain-containing proteins, which are known to bind PIP3 specifically and efficiently, were examined. […] Oikawa T et al. (2004) Nat Cell Biol 6:420-6.

SMILES | pIC50 (HUVEC [1]; Homo sapiens, HUVEC on Matrigel, 8 hr, 3.125-100 μM, read-out: IC50, inhibition of tube formation) | migration of HUVEC cells (HUVEC [2]) | PDGF-induced membrane ruffling in SUM159 cells (SUM159 cells) | subG1 DNA content in cells (cells) | viability of U87MG, SUM 159, A549 and MDA-MB-231 cells ([3]; 12.5-100 μM, 48 hr, ATP assay) | viability of multiple cancer cell lines [3] | plasma membrane translocation of WAVE2 (WAVE2) | inhibition of tube formation (HUVEC [1])
O=C(NC(=S)Nc1cc([N+](=O)[O-])cc(Cl)c1O)c1ccccc1 [PIT-1] | 5.11 | efficiently blocked migration | efficiently inhibited | significant increase | reduces viability | reduced viability | suppressed the plasma membrane translocation | –
O=C1NC(=S)S/C1=C\c1cc(O)c([N+](=O)[O-])cc1Cc1ccccc1 [PIT-2] | – | efficiently blocked migration | efficiently inhibited | significant increase | – | reduced viability | suppressed the plasma membrane translocation | also observed
